Assay [1] concerns the target T1, Zinc finger protein mex-5 (Caenorhabditis elegans, UniProt Q9XUB2).
T1 sequence (Q9XUB2 whole entry): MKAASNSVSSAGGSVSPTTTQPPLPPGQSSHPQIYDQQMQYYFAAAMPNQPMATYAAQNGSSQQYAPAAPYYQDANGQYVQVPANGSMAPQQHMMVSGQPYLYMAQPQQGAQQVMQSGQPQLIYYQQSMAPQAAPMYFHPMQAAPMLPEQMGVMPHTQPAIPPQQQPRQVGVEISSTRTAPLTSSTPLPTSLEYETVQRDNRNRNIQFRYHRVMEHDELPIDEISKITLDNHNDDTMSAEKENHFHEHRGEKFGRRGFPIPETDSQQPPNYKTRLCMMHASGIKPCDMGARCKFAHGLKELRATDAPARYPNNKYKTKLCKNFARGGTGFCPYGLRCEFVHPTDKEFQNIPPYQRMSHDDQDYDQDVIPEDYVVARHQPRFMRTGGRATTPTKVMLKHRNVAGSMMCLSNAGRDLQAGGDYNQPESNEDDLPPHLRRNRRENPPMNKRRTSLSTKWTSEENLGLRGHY
The assay can be described thus: potency of MEX-5 RNA-binding blockers – biochemical, C. elegans, fluorescence polarization, dose response (AID 1960). (In general: In fluorescence polarisation assays a small probe gives low polarisation when free and higher when bound to something large.)

In assay [2] the target is T2, RNA-binding protein pos-1 (Caenorhabditis elegans, UniProt G5EF15).
T2 sequence (G5EF15 whole entry): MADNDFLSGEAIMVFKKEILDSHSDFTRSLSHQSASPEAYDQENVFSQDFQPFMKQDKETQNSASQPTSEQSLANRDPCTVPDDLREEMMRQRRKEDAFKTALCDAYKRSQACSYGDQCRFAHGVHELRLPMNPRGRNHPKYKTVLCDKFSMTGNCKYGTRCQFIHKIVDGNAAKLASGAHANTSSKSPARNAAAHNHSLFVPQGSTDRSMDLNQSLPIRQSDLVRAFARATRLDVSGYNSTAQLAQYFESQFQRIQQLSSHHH
The assay can be described thus: disruptors of C. elegans POS-1 RNA interaction – biochemical, fluorescence polarization, dose response (AID 1964).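 Note: purified POS-1 fused to maltose binding protein made in E. coli; potency of compounds blocking POS-1 binding to fluorescent RNA.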

In assay [3] the target is T3, Heat shock factor protein 1 (Mus musculus, UniProt P38532).
T3 sequence (P38532 whole entry): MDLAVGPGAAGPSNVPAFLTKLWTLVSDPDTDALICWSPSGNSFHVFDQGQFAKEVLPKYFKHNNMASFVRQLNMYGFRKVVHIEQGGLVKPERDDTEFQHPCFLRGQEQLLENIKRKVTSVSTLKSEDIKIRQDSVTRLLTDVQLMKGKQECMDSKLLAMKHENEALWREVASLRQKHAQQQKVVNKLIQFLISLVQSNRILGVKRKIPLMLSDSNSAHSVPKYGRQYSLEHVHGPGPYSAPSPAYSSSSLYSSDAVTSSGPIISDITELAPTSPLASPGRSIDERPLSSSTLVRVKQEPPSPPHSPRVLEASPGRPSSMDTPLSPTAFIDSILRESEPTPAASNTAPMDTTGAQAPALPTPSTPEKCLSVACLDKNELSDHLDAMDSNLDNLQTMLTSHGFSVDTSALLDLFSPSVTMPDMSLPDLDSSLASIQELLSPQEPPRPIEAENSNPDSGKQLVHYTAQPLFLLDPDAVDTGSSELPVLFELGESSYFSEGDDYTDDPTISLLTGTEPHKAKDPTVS
The assay can be described thus: enhancement of HSF1-driven luciferase signal – cell-based, NIH3T3, luminescence, dose retest, confirmation (AID 435004).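 Note: stress induced by proteasome inhibitor MG132 added 30 min after compound; luciferase reporter driven by HSF1 response element in NIH3T3 cells; actives raise luminescence as potentiators of the MG132 stress response.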 Type of assay: functional.

The target of assay [4] is T4, Polyadenylate-binding protein 1 (Homo sapiens, UniProt P11940). The assay can be described thus: MLLE binding blockers, Cy5 peptide tracer – biochemical, fluorescence polarization, Cy5-PAM2 peptide, secondary, miRNA deadenylation inhibitor project, dose response (AID 602260). Type of assay: functional. To be noted: read-out: IC50_Mean.
T4 sequence (P11940 whole entry, the tested form may be a part): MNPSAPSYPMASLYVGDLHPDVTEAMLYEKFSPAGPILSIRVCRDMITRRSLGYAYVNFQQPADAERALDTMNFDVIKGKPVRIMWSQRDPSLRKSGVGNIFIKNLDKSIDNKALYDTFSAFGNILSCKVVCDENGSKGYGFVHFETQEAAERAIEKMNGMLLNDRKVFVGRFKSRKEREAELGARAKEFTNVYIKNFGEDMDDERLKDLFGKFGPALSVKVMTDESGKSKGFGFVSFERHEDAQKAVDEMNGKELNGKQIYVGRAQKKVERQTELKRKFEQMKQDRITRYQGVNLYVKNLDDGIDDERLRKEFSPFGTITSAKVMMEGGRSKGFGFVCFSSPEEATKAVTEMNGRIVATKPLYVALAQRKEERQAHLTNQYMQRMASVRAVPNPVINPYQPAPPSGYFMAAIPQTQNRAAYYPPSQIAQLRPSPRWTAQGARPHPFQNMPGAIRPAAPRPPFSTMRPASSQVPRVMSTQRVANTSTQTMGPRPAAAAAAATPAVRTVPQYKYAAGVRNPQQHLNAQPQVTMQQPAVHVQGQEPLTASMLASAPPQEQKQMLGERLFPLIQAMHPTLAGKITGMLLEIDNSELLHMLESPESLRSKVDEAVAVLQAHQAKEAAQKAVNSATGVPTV
The target of assay [5] is T4, Polyadenylate-binding protein 1. Put plainly: MLLE domain peptide-binding blockers, IC50 – biochemical, fluorescence polarization, FITC-PAM2 peptide, dose response (AID 602259). The class given is functional. The following applies: read-out: IC50_Mean.
The nature of assay [6]: Luminescence Cell-Based Dose Confirmation HTS to Identify Inhibitors of Platelet Dense Granule Release. [Related pubchem assays: 1663 (Primary HTS), 1678 (Summary of Project)]. Type of assay: functional.
Assay [7] has as its target Luciferin 4-monooxygenase (Photinus pyralis, UniProt P08659). Put plainly: inhibition of purified Photinus pyralis luciferase – biochemical, luminescence, dose response (AID 1891).
A short description of assay [8]: Luminescence Cell-Based Dose Response HTS to Identify Inhibitors of 5'UTR Stem-Loop Driven Prion Protein mRNA Translation in H4 Neuroglioblastoma Cells. [Related pubchem assays: 1827 (Project Summary), 1813 (Primary HTS)]. Type of assay: functional.
A short description of assay [9]: luciferase reporter signal suppression in cells – H4 neuroglioma cells, luminescence, dose response (AID 1990). The class given is functional, cell-based. (Reporter assays use an easily measured gene product as a stand-in for the process of interest.)
Assay [10] is described as follows: alpha-synuclein stem-loop luciferase translation blockers – H4 neuroglioma cells, luminescence, confirmation (AID 1988). Type of assay: functional, cell-based.
Assay [11] concerns the target T5, Rac GTPase-activating protein 1 (Homo sapiens, UniProt Q9H0H5).
T5 sequence (Q9H0H5 whole entry): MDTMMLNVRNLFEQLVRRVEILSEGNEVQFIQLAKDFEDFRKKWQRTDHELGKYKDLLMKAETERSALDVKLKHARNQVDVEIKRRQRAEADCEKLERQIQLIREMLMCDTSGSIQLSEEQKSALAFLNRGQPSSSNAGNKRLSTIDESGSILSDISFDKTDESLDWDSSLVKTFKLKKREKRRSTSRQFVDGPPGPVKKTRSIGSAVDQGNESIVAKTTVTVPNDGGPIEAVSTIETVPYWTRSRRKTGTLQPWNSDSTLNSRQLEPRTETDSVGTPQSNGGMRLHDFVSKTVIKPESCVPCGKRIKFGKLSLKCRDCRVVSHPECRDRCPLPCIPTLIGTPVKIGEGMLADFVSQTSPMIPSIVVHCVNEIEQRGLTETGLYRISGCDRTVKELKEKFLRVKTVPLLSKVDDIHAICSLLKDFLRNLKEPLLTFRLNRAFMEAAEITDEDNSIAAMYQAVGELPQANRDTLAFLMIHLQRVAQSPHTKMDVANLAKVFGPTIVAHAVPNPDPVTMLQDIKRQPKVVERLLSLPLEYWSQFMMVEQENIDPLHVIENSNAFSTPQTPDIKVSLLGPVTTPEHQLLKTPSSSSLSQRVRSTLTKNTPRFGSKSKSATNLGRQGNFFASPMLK
The assay can be described thus: blockers of MgcRacGAP-driven Rac1 GTP hydrolysis – biochemical, ADP Hunter fluorescence, primary and confirmatory, confirmation (AID 624330). Type of assay: functional.

Assay [12] has as its target FAD-linked sulfhydryl oxidase ALR (Homo sapiens, UniProt P55789). The assay can be described thus: ALR-catalysed DTT oxidation blockers – biochemical, H2O2 detection, luminescence, cherry-pick, dose response (AID 493248).
A short description of assay [13]: NIH-3T3 fibroblast cytotoxicity, dose response, cytotoxicity control, cell-based, fluorescence, Alamar Blue, secondary assay (AID 2327).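 Note: NIH-3T3 mouse fibroblasts cultured with fluconazole at 8 µg/mL.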 The class given is functional. Background: Alamar Blue is a resazurin reagent that responds to reducing activity.
Assay [14] can be described thus: fluconazole-exposed Candida albicans growth modulators – fluorescence, retest, confirmation (AID 2467). Type of assay: functional, cell-based.

The source made the active and inactive calls. Cut-off read from the data, not from the text of the source, for most assays here: actives have a measured EC50 and inactives only a lower limit.

These results are taken from ChEMBL document CHEMBL1201862, “PubChem BioAssay data set” (2004).

The term EC50 denotes the concentration giving half of the maximal effect. In general, AC50 refers to the concentration at which the activity in the assay is half-maximal.

FAD-linked sulfhydryl oxidase ALR, sequence (P55789 whole entry): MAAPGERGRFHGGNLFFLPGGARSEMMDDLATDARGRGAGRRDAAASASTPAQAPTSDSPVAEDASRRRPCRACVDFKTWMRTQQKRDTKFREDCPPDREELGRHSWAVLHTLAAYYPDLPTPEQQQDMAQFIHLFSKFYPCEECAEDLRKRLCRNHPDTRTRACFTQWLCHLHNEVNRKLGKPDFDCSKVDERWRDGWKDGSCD
Luciferin 4-monooxygenase, sequence (P08659 whole entry): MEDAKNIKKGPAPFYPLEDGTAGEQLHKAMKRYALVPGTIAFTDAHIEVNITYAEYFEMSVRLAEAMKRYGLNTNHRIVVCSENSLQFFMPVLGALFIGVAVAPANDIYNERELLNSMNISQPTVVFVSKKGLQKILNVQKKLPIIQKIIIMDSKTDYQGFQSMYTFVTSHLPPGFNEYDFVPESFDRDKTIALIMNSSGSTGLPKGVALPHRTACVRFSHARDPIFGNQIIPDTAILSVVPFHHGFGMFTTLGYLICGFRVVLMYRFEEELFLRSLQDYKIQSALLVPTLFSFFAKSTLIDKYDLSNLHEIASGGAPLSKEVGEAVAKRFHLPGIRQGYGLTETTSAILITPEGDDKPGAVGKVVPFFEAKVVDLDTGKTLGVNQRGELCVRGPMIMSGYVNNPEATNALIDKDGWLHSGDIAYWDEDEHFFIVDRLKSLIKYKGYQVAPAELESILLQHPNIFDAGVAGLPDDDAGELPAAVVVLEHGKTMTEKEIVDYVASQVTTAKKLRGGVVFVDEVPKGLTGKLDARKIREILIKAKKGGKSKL

For the compound `Cc1nc(/C=C2\C(=O)Nc3ccccc32)c[nH]1`, the EC50 in assay [1] and in assay [2] was > 300 µM (not active) each time. As for `CCCCN(C)C(=O)C1CCC(CNS(=O)(=O)c2ccc3c(c2)CC(C)N3C(=O)C2CC2)CC1` (stereo not given), the EC50 in assay [3] was > 260 µM (inactive). As to `CC(C)c1ccc(/C=C(\NC(=O)c2ccccc2)C(=O)NCCN2CCOCC2)cc1`, the concentration giving a half-maximal response (EC50) in assay [1] and in assay [2] was > 300 µM (not active) in each case. As for `Cc1ccc([N+](=O)[O-])cc1S(=O)(=O)Nc1ccc(O)c(Sc2nc[nH]n2)c1`, the EC50 in assay [1] is 9.83 µM (inconclusive); in [2], 9.8 µM (active). Further, the IC50 in [4] and in [5] was > 66 µM (inactive) in each case. With `O=C(COC(=O)c1cnc(O)nc1O)Nc1ccccc1Br`, the 50% effective concentration (EC50) in assay [6] and in assay [7] was > 112 µM (not active) throughout.

`CCCc1n[nH]c2c1C(c1cc(OC)ccc1F)C(C#N)=C(N)O2` (stereo not given): the EC50 in assay [3] is > 260 µM (inactive). For `Cc1cc(C)n2nc(N)c(N=Nc3cccc(Cl)c3)c2n1`, in assay [3], the EC50 was > 260 µM (inactive). Same read-out and setting: for `Cc1ccccc1-n1c(-c2ccc(Cl)cc2)cnc1SCC(=O)NC1CCS(=O)(=O)C1` (stereo not given) the value was > 260 µM (inactive). With `Cc1cccc(C(=N)NOC(=O)c2ccc3c(c2)OCO3)c1`, the concentration giving a half-maximal response (EC50) in [6] is 1.47 µM (active); in [7], 0.838 µM (active). Regarding `COCCCNC(CC(=O)Nc1cc(C)cc(C)c1)C(=O)O` (stereo not given), the EC50 in assay [1] and in [2] was > 300 µM (not active) each time. On to `Cc1occc1C(=O)O/N=C(\N)c1ccccc1`, for which the concentration giving a half-maximal response (EC50) in assay [6] is 2.59 µM (active); in [7], 3.91 µM (active). For the compound `N#Cc1ccsc1NC(=O)CN1CCN(S(=O)(=O)c2ccc3ccccc3c2)CC1`, in [3], the EC50 was > 260 µM (inactive). In the case of `CCOC(=O)c1c(NC(=O)c2nn(CC)cc2Br)c(C#N)nn1-c1ccccc1`, the EC50 is > 260 µM (inactive) in [3], > 120 µM (not active) in [8], 22.5 µM (active) in assay [9] and > 120 µM (not active) in [10]. As to `COc1cc2c(cc1OC)-c1cc(Nc3cccc(F)c3)nc(=O)n1CC2`, the results for the EC50 in assay [6] and in assay [7] were 1.08 µM (active) and > 112 µM (not active), respectively. On to `CSCC(C)N1CCC(Oc2cccc(C(=O)NCc3ccccn3)c2)CC1` (stereo not given), for which the values for the half-maximal effective concentration (EC50) in [1] and in assay [2] were 75.4 µM (active) and 34.9 µM (active), respectively. Also, the IC50 is 34.1 µM (inactive) in assay [4] and 31.6 µM (inactive) in [5].

Consider `COc1ccc(OC(=O)COc2ccc(C)cc2)cc1`, for which, in [11], the IC50 is 30 µM (active).

With `CCN(CCNC(=O)CN1CCN(Cc2ccc(Cl)cc2)C1=O)c1ccccc1`, the EC50 in [3] was > 260 µM (inactive). `Nc1c(Cl)cc(NC(=O)c2ccccc2C(=O)O)cc1Br`: the IC50 in assay [11] was 169 µM (active).

As for `COC(=O)c1c(C)[nH]c(C(=O)OCC(=O)N2c3ccccc3NC(=O)C2(C)C)c1C`, the EC50 in assay [6] and in [7] was > 112 µM (not active) throughout.

Take `CN(c1ccc(C(=O)Nc2ccc3c(c2)OCO3)cc1)S(C)(=O)=O`: the EC50 in [6] is 6 µM (active); in assay [7], 26.3 µM (active).

Consider `CCN(CC)c1ccc(CN(C(=O)c2cc(OC)c(OC)c(OC)c2)C2CCS(=O)(=O)C2)cc1` (stereo not given), for which the half-maximal activity concentration (AC50) in assay [12] was 9.07 µM (active). In the case of `CCc1nnc(NS(=O)(=O)c2ccc(NCc3ccccc3O)cc2)s1`, the EC50 in assay [6] and in [7] was > 112 µM (not active) throughout. Turning to `O=S(=O)(NCC(c1ccco1)N1CCc2ccccc21)c1ccccc1` (stereo not given), the concentration at half-maximal activity (AC50) in [12] is 2.49 µM (active). With `Cc1ccc(NC(=O)COC(=O)[C@H](C)NC(=O)c2ccccc2)cc1S(=O)(=O)N1CCOCC1`, the 50% effective concentration (EC50) in assay [6] and in assay [7] was > 112 µM (not active) in each case. In the case of `Cc1cccc(/C=N/n2c(S)nnc2-c2ccccn2)c1`, the half-maximal activity concentration (AC50) in assay [12] is 67.5 µM (active). `CC(Oc1ccc(Cl)cc1Cl)C(=O)Nc1ccc(O)cc1` (stereo not given): the IC50 in assay [11] was 38.4 µM (active).

Consider `CN1C(=O)NC(=O)/C(=C/c2ccc[nH]2)C1=O`, for which the EC50 in [1] and in [2] was > 300 µM (not active) in each case. `COc1cc(C)c(NC(c2ccccc2)c2ccccc2)cc1OC`: the IC50 in [11] is 113 µM (active). On to `CCCCN(C)C(=O)CCC(=O)NNc1nc2ccccc2c2nc(C)nn12`, for which the figures for the EC50 in [1] and in [2] were 5.37 µM (active) and > 300 µM (not active), respectively. Turning to `COc1ccnc(N2CCN(c3ccccc3)CC2)c1C#N`, the values for the EC50 in assay [13] and in [14] were > 160 µM (inactive) and > 38 µM (not active), respectively. Besides, the AC50 in assay [12] is 1.27 µM (active).

On to `O=C(NNC(=O)c1ccccc1O)c1cccc(Br)c1`, for which the EC50 was 25.6 µM (active) in assay [1] and 41 µM (active) in assay [2]. For the compound `COCCN1CCN(C(=O)c2ccc3nc(Cc4ccccc4F)oc3c2)CC1`, the EC50 in assay [6] and in assay [7] was > 112 µM (not active) in each case. `CCOC(=O)c1c(N)sc(C(=O)Nc2ccc3c(c2)OCO3)c1C`: the concentration giving a half-maximal response (EC50) in assay [6] was 3.34 µM (active); in [7], 1.28 µM (active). In the case of `CC1=CC2=C(OC1N(C)C)c1cccc3cccc(c13)C2=O` (stereo not given), the EC50 was > 260 µM (inactive) in assay [3], > 150 µM (inactive) in assay [13] and > 38 µM (not active) in [14]. With `CN(C)C1=NC(=O)/C(=C/c2ccc(-c3ccc(S(N)(=O)=O)cc3)o2)S1`, the concentration for a half-maximal effect (EC50) in assay [1] and in [2] was > 300 µM (not active) throughout.
